Source: patent US9926297B2, “Bicyclic AZA compounds as muscarinic M1 receptor and/or M4 receptor agonists” (Heptares Therapeutics Limited, priority 2014, dated 2018)
Like-named read-outs stand apart in the source and are kept apart here.

Key:
[1] = target: human muscarinic M3 receptor (Homo sapiens, UniProt P20309); assay: Alphascreen Surefire phospho-ERK1/2 functional assay, M3; conditions: for Emax: CHO; for EC50: pEC50 M3, CHO cells stably expressing human M3, phospho-ERK1/2, * = variable results
[2] = target: T1, human muscarinic M1 receptor (Homo sapiens, UniProt P11229); assay: Alphascreen Surefire phospho-ERK1/2 functional assay, M1; format: cell-based; conditions: for EC50: CHO cells stably expressing human M1, phospho-ERK1/2, * = variable results, read-out: pEC50 M1 (converted); for Emax: CHO
T1 sequence (P11229 1-460): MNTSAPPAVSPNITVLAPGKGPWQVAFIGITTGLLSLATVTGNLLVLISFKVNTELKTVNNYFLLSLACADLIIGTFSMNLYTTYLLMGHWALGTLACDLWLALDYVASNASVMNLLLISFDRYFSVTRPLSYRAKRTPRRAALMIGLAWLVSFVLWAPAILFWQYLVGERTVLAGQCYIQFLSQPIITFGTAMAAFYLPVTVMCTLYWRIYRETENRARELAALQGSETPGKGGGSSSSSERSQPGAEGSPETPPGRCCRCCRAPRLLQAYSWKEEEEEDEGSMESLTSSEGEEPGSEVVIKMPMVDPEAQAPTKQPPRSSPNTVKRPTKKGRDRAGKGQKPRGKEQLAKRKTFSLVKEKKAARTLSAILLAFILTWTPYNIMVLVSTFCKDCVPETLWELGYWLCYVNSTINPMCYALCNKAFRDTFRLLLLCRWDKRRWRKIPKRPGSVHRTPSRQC

[3] = target: T2, human muscarinic M4 receptor (Homo sapiens, UniProt P08173); assay: Alphascreen Surefire phospho-ERK1/2 functional assay, M4; format: cell-based; conditions: for EC50: CHO cells stably expressing human M4, phospho-ERK1/2, * = variable results, read-out: pEC50 M4 (converted); for Emax: CHO
T2 construct: expressed in transfected cells
T2 sequence (P08173 1-479): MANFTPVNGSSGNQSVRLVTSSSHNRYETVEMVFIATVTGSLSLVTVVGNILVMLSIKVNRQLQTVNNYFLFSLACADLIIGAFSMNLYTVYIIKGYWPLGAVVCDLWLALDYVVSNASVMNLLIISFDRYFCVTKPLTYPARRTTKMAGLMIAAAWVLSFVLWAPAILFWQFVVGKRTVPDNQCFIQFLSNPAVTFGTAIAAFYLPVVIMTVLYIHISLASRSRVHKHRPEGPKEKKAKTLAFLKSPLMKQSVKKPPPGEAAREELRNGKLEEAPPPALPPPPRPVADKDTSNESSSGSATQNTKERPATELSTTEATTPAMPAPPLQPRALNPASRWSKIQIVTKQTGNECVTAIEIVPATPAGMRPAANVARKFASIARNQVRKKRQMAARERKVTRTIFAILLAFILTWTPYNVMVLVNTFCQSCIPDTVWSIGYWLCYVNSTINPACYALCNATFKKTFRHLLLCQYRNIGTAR

[4] = target: T3, human muscarinic M2 receptor (Homo sapiens, UniProt P08172); assay: Alphascreen Surefire phospho-ERK1/2 functional assay, M2; conditions: for Emax: CHO
T3 sequence (P08172 1-466): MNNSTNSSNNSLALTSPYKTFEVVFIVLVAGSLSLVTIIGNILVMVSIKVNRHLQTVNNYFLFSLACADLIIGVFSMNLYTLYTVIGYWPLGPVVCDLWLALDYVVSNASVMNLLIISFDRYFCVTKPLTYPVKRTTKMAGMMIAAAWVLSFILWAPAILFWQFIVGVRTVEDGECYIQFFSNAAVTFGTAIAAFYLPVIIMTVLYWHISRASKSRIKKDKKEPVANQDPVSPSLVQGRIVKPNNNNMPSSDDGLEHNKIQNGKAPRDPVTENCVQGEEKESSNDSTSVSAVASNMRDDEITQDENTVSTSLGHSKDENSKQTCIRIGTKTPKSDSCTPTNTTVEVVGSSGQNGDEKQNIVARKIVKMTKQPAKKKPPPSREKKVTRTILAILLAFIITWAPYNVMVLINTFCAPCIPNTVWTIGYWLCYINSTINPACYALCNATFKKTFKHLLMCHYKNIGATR

[5] = test system: scopolamine-induced amnesia; assay: Passive avoidance task, scopolamine-induced amnesia; format: in vivo
Protocol: Studies were carried out as described previously by Foley et al., (2004) Neuropsychopharmacology. In the passive avoidance task scopolamine administration (1 mg/kg, i.p.) at 6 hours following training rendered animals amnesic of the paradigm. A dose range of 3, 10, and 30 mg/kg (po) free base, administered 90 minutes prior to the training period via oral gavage, was examined.

[6] = read-out: % Emax cf. ACh, M3, CHO cells stably expressing human M3, relative to ACh
[7] = read-out: % Emax cf. ACh, M1, CHO cells stably expressing human M1, relative to ACh
[8] = read-out: % Emax cf. ACh, M4, CHO cells stably expressing human M4, relative to ACh
[9] = read-out: % Emax cf. ACh, M2, CHO cells stably expressing human M2, relative to ACh

Chain of human muscarinic M3 receptor (P20309 whole entry): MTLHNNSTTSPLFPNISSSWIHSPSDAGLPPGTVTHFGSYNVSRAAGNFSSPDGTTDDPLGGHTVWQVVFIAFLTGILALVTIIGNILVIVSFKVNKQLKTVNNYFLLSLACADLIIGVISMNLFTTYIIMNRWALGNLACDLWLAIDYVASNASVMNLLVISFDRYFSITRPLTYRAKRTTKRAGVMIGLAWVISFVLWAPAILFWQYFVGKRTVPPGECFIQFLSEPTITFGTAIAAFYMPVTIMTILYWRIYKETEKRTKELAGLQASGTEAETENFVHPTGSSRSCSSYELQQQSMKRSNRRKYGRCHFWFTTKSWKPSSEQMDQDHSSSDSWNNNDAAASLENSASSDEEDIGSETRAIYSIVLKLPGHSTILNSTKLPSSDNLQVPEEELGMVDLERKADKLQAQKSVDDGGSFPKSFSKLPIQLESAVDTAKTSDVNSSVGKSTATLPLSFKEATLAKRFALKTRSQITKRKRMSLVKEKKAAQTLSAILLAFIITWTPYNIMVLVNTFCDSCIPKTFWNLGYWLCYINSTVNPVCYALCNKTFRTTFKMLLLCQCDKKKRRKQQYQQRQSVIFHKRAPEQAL

Compound | Emax [1, 6] [%] | EC50 [1] [µM] | EC50 [2] [nM] | Emax [2, 7] [%] | EC50 [3] [nM] | Emax [3, 8] [%] | EC50 [4] [µM] | Emax [4, 9] [%] | Emax ([1]; read-out: % Emax cf. ACh, M3) [%] | reversal of scopolamine-induced amnesia ([5]; 3, 10 and 30 mg/kg po) | ED50 ([5]; po, 90 minutes prior to training, scopolamine 1 mg/kg i.p. 6 hours following training, read-out: approximate ED50, reversal of scopolamine-induced amnesia) [mg/kg] | Emax ([2]; read-out: % Emax cf. ACh, M1) [%] | Emax ([3]; read-out: % Emax cf. ACh, M4) [%] | Emax ([4]; read-out: % Emax cf. ACh, M2) [%]
CCOC(=O)N1CCC2(CC(N3CCC(n4cccn4)CC3)C2)C1 (single isomer, unassigned) [1-33 Isomer 2, ethyl 2-[4-(1H-pyrazol-1-yl)piperidin-1-yl]-6-azaspira[3.4]octane-6-carboxylate] |  | > 20 | 25.1 |  | 3.98 |  |  |  | 7 | reverse scopolamine-induced amnesia of the paradigm in a dose-dependent manner | ~10 | 11 | 118 | 49
CCOC(=O)N1CCC2(CC(N3CCC(c4ncc[nH]4)CC3)C2)C1 (single isomer, unassigned) [1-1 Isomer 2, ethyl 2-[4-(1H-imidazol-2-yl)piperidin-1-yl]-6-azaspiro[3.4]octane-6-carboxylate] | 26 | > 20 | 63.1 | 121 | 7.94 | 112 | > 20 | 20 |  |  |  |  |  | 
CCOC(=O)N1CCC2(CC(N3CCC(c4nc(Cl)c[nH]4)CC3)C2)C1 (single isomer, unassigned) [1-2 Isomer 2, ethyl 2-[4-(4-chloro-1H-imidazol-2-yl)piperidin-1-yl]-6-azaspiro[3.4]octane-6-carboxylate] | 4 | > 20 | 251 | 93 | 25.1 | 100 | > 20 | 6 |  |  |  |  |  | 
CCOC(=O)N1CCC2(CC(N3CCC(n4cccc4)CC3)C2)C1 (single isomer, unassigned) [1-32 Isomer 2, ethyl 2-[4-(1H-pyrrol-1-yl)piperidin-1-yl]-6-azaspiro[3.4]octane-6-carboxylate] | 16 | > 20 | 79.4 | 113 | 6.31 | 126 | > 20 | 56 |  |  |  |  |  | 

More lines, main results first:

Emax [1, 6] [%] | EC50 [1] [µM] | EC50 [2] [nM] | Emax [2, 7] [%] | EC50 [3] [nM] | Emax [3, 8] [%] | EC50 [4] [µM] | Emax [4, 9] [%] | Compound | Emax ([1]; read-out: % Emax cf. ACh, M3) [%] | reversal of scopolamine-induced amnesia ([5]; 3, 10 and 30 mg/kg po) | ED50 ([5]; po, 90 minutes prior to training, scopolamine 1 mg/kg i.p. 6 hours following training, read-out: approximate ED50, reversal of scopolamine-induced amnesia) [mg/kg] | Emax ([2]; read-out: % Emax cf. ACh, M1) [%] | Emax ([3]; read-out: % Emax cf. ACh, M4) [%] | Emax ([4]; read-out: % Emax cf. ACh, M2) [%]
8 | > 20 | 7.94 | 124 | 2 | 122 | > 20 | 20 | CCOC(=O)N1CCC2(CC(N3CCC(c4cscn4)CC3)C2)C1 (single isomer, unassigned) [1-50 Isomer 2, ethyl 2-[4-(1,3-thiazol-4-yl)piperidin-1-yl]-6-azaspiro[3.4]octane-6-carboxylate] |  |  |  |  |  | 
0 | > 20 | 501 | 52 | 20 | 70 | > 20 | 1 | CCOC(=O)N1CCC2(CC(N3CCC([C@@H]4CCCN4c4nccs4)CC3)C2)C1 (single isomer, unassigned) [2-82 Isomer 2] |  |  |  |  |  | 
